# Values joined by “and” are separate entries in the source; they are usually repeats but may differ in a detail not shown here. Identical values can stand only once. Marks after values point to notes of the source that are not given here.
# Key:
# [1] = tested on: E. coli; assay: MIC (D10 %) of active compounds in ground beef, E. coli; type: cell-based, Escherichia coli (ATCC 25922); settings: non-irradiated ground beef, 10^5 CFU/g, stored at 4° C. for 24 hours; % w/w or v/w
# Description: (§1) Escherichia coli (ATCC 25922) and Salmonella typhi (ATCC 19430) were obtained from the American Type Culture Collection (Rockville, Md., USA) and maintained at −80° C. in Tryptic Soy Broth (TSB; Difco Laboratory, Detroit, Mich.) containing glycerol (10%; v/v). Before each experiment, stock cultures were subcultured through two consecutive 24 h growth cycles in TSB at 35° C. to obtain working cultures containing approximately 10^9 UCF/ml for E. coli and S. typhi.
# (§2) Samples were homogenised for 2 min in sterile peptone water (0.1%) using a Lab-blender 400 stomacher (Laboratory Equipment, London, UK). From this mixture, serial dilutions were prepared and appropriate ones were pour-plated in tryptic soy agar (TSA) (Difco, Laboratories, Detroit, Mich., USA) and incubated at 35° C., 24 hours for the numeration of E. coli and S. typhi.
# (§3) D10 deteriiination: The kinetics of bacteria destruction by irradiation with or without the active compounds and under different packaging conditions was evaluated by linear regression. Bacterial counts (log CFU/ml) were plotted against irradiation doses or compound concentrations and the D10 values were calculated using SigmaPlot program. Statistical analysis was done using SPSS program. The Duncan test was used with a probability of 0.05.
# (§4) The MIC values for the active compounds were determined on the basis of their antibacterial effectiveness in meat. Concentrations retained were those to reduce by 1 log CFU the population of E. coli or S. typhi in ground beef. Ground beef samples weighing 200 g were contaminated with working cultures of E. coli or S. typhi to obtain a final concentration of 10^5 CFU/g. The ground beef samples containing micro-organisms was mixed during 3 minutes at medium speed in a 4L-conmmercial blender (Waring Products, New Hartford, Col., USA) and different concentrations of the active compounds were incorporated, followed by another 3 minutes period mixing. Sterile petri plates (60×15 mm) were filled with ground beef samples containing micro-organisms and different concentrations of active compounds in portion of 25 g each and stored at 4° C. for 24 hours.
# (§5) In addition to the above compounds, minimal concentrations of different types of commercial Herbalox® and Duralox® required to reduce by 1 log the bacterial population of E. coli in ground beef were evaluated. […] However, an estimation of the minimal concentration was calculated using the slope of the curve.
# [2] = tested on: Six pathogenic and spoilage bacteria, commonly found in meat and meat products; assay: MIC in artificial culture media (1 log reduction); type: cell-based
# Description: The concentration ot each active compound added to the meat samples was based on results obtained in a previous experiment. These concentrations represent the minimum inhibitory concentrations (MIC) of the active compounds required to be present in artificial culture media in order to reduce by 1 log the number of bacteria in culture. Six pathogenic and spoilage bacteria, commonly found in meat and meat products, were tested. […] The concentration used for carnosine (1.0%) was selected from the literature (Sebranek, 1999). The concentrations of BHA (0.01%), BHT (0.01%), EDTA (100 ppm), and tetrasodium pyrophosphate (0.1%) corresponded to the concentrations recommended by the Canadian Food Inspection Agency (CFIA).
# This value was detennined by testing six pathogenic and spoilage bacteria, commonly found in meat and meat products.
# [3] = tested on: Salmonella typhi; assay: Example 4 irradiation sensitivity (D10) of S. typhi in ground beef; type: cell-based; settings: carvacrol 1.15%, thymol 1.60%
# Description: (§6) Irradiation treatments of ground beef samples for D10 and shelf life determination were performed using UC-15B irradiator (MDS-Nordion International Inc., Kanata, ON, Canada) equipped with a ^60 Co source at a dose rate of 14.42 kGy/h). Irradiation doses used for D10 determination were ranged from 0.25 to 0.55 kGy for E. coli, from 0.50 to 2.0 kGy for S. typhi, and from 0.5 to 2.5 kGy for the mixture of indigenous microorganisms of ground beef. The shelf life study was performed on samples irradiated at 0.30, 0.85, and 1.75 kGy for E. coli, S. typhi, and the mixture of indigenous microorganisms of ground beef, respectively. For each active compound concentration tested, a group of non-irradiated samples sened as a control. For D10 determination, samples were analysed immediately after irradiation. For shelf life studies, samples were stored at 4° C. and analysed periodically.
# Microbial analysis was performed by homogenising the samples for 2 mn in sterile peptone water (0.1%) using a Lab-blender 400 stomacher (Laboratory Equipment, London, UK). […]
# The kinetics of bacteria destruction by irradiation with or without the food additives was evaluated by linear regression. Bacterial counts (log CFU/ml) were plotted against irradiation doses or active compounds concentration and D10 values were calculated using the PROC REG procedure of SAS (SAS Institute, Cary, N.C., USA). […]
# [4] = tested on: S. typhi; assay: Irradiation sensitivity of S. typhi in chicken breast; type: cell-based, Salmonella typhi (ATCC 19430); settings: for D10(kGy) / Increase in Sensitivity: chicken breast; for D10(kGy): 4° C.; for D10(kGy) / irradiation dose necessary to completely eliminate S. typhi from the chicken breast / Increase in Sensitivity: trans-cinnamaldehyde 0.030%, tetrasodium pyrophosphate 0.003%, carvacrol 0.038%, thymol […]; for factor by which the effect was reduced in the chicken breast: concentration of 1/30 of the MIC value in ground beef, compared with ground beef at MIC; for Increase in Sensitivity: vs control
# [5] = tested on: E. coli; assay: Irradiation sensitivity of E. coli in chicken breast; type: cell-based, Escherichia coli (ATCC 25922); settings: trans-cinnamaldehyde 0.050%, thymol 0.038%, tetrasodium pyrophosphate 0.003%, carvacrol 0.029%; for D10(kGy) / Increase in Sensitivity: chicken breast; for D10(kGy): 4° C.; for Increase in Sensitivity: vs control
# [6] = tested on: E. coli; assay: Shelf life study, E. coli in ground beef irradiated at 0.30 kGy; type: cell-based, Escherichia coli; settings: stored at 4° C., trans-cinnamaldehyde […], thymol 1.15%, carvacrol […]
# Description: as §6
# Microbial analysis was performed by homogenising the samples for 2 mn in sterile peptone water (0.1%) using a Lab-blender 400 stomacher (Laboratory Equipment, London, UK). From this mixture, serial dilutions were prepared and appropriate ones were pour-plated in tryptic soy agar (TSA) (Difco, Laboratories, Detroit, Mich., USA) and incubated at 35° C., 24 hours for the numeration of E. coli and S. typhi. For the ground beef broth, the incubation was performed on Plate Count Agar (PCA; Difco) at 35° C. for 48 h for the numeration mesophilic bacteria, and at 7° C. for 10 days for the numeration of psychrotrophic bacteria. Enterobacteriaceae were numerated on Violet Red Bile Glucose Agar (VRBGA; Difco) 35° C. for 48 hours.
# A shelf life study was undertaken to evaluate the radiation sensitivity during refrigerated storage conditions. Ground beef samples contaminated with E. coli, S. typhi, or a mixture of indigenous micro-organisms were irradiated in presence or absence of selected active compounds. […]
# [7] = tested on: S. typhi; assay: MIC (D10 %) of active compounds in ground beef, S. typhi; type: cell-based, Salmonella typhi (ATCC 19430); settings: non-irradiated ground beef, 10^5 CFU/g, stored at 4° C. for 24 hours; % w/w or v/w
# Description: as §1, §2, §3, §4, §5
SMILES,D10 (%): minimal concentration of active compound required to reduce E. coli population by 1 log in ground beef [1],Mean values of MIC (concentration required in artificial culture media to reduce by 1 log the number of bacteria) [2],D10(kGy) [3],D10(kGy) [4],factor by which the effect was reduced in the chicken breast [4],irradiation dose necessary to completely eliminate S. typhi from the chicken breast [4],Increase in Sensitivity [4],D10(kGy) [5],irradiation dose necessary to completely eliminate E. coli from the chicken breast [5],Increase in Sensitivity [5],days of storage after which complete inhibition was observed [6],D10 (%): minimal concentration of active compound required to reduce S. typhi population by 1 log in ground beef [7]
"Cc1ccc(C(C)C)cc1O [Carvacrol, carvacrol]",0.88 ± 0.12^a %,0.125%,0.316 kGy,0.532 ± 0.071^b kGy,4,2.3 kGy,17.3%,0.145 ± 0.003^c kGy,0.72 kGy,0%,50 days,1.15 ± 0.02^a %
"Cc1ccc(C(C)C)c(O)c1 [Thymol, thymol]",1.14 ± 0.05^a %,0.1%,0.382 kGy,0.570 ± 0.065^b kGy,5,2.8 kGy,11.4%,0.131 ± 0.007^b kGy,around 0.75 kGy,9.7%,15 days,1.60 ± 0.00^ab %
"O=C/C=C/c1ccccc1 [Trans-cinnamaldehyde, trans-cinnamaldehyde]",1.57 ± 0.10^b %,0.25% and 0.025%,,0.341 ± 0.018^a kGy,1.5,1.4 kGy,47.0%,0.098 ± 0.006^a kGy,0.75 kGy,32.4%,15 days,0.89 ± 0.03^a %
